Results taken from patent publication US8143282B2, “Heterocyclic compounds” (S*BIO Pte Ltd., priority 2005, dated 2012).

Legend:
Colo205 cells = experiment: Cell-based proliferation assay for GI50 (CyQUANT), Colo205; details: Homo sapiens, COLO 205, 96 h treatment, read-out: Cellular or Growth Inhibition Activity in Colo205 cells, GI50
Method: Human colon cancer cell lines (Colo205, HCT116), Ovarian cancer cell line (A2780), Hepatoma cell line (HEP3B), Prostate cancer cell line (PC3) were obtained from ATCC or ECACC. Colo205 cells were cultivated in RPMI 1640 containing 2 mM L-Glutamine, 5% FBS, 1.0 mM Na Pyruvate, 1 U/ml of penicillin and 1 μg of streptomycin. HCT116 cells were cultivated in McCoy's containing RPMI 1640 containing 2 mM L-Glutamine, 5% FBS, 1 U/ml of penicillin and 1 μg of streptomycin. A2780 cells were cultivated in RPMI 1640 containing 2 mM L-Glutamine, 5% FBS, 1 U/ml of penicillin and 1 μg of streptomycin. HEP3B cells were cultivated in EMEM containing 2 mM L-glutamine, 5% FBS, 1% non essential amino acid, 1 mM Na Pyruvate, 1 U/ml of penicillin and 1 μg of streptomycin. PC3 cells were cultivated in F12K, 2 mM L-glutamine, 5% FBS, 1 U/ml of penicillin and 1 μg of streptomycin. PC3, Colo205, and HCT116 cells were seeded in 96-wells plate at 1000, 5000 and 6000 cells per well respectively. A2780 and HEP3B cells were seeded in 96-wells plate at 4000 cells per well respectively. The plates were incubated at 37° C., 5% CO2, for 24 h. Cells were treated with compounds at various concentrations for 96 h. Cell growth was then monitored using CyQUANT® cell proliferation assay (Invitrogen Pte Ltd). Dose response curves were plotted to determine GI50 values for the compounds using XL-fit (ID Business Solution, Emeryville, Calif.). GI50 is defined as the concentration of compound required for 50% inhibition of cell growth.

HDAC1 enzyme = molecular target: T1, HDAC1 enzyme (Homo sapiens, UniProt Q13547); experiment: In vitro HDAC assay for determination of IC50 values (BIOMOL fluorescent-based HDAC activity assay); format: biochemical
T1 construct: Amplification of human HDAC1 coding region from this cDNA library was cloned separately into the baculovirus expression pDEST20 vector; made in house; host or cells: SF9 insect cells, pDEST20-HDAC1 baculovirus
Method: Human cDNA library was prepared using cultured SW620 cells. Amplification of human HDAC1 coding region from this cDNA library was cloned separately into the baculovirus expression pDEST20 vector (GATEWAY Cloning Technology, Invitrogen Pte Ltd). The pDEST20-HDAC1 construct was confirmed by DNA sequencing. Recombinant baculovirus was prepared using the Bac-To-Bac method following the manufacturer's instruction (Invitrogen Pte Ltd).
Expression of GST-HDAC1 was done by infecting SF9 cells (Invitrogen Pte Ltd) with pDEST20-HDAC1 baculovirus at MOI=1 for 48 h. Soluble cell lysate was incubated with pre-equilibrated Glutathione Sepharose 4B beads (Amersham) at 4° C. for 2 h. The beads were washed with PBS buffer for 3 times. The GST-HDAC1 protein was eluted by elution buffer containing 50 mM Tris, pH8.0, 150 mM NaCl, 1% Triton X-100 and 10 mM or 20 mM reduced Glutathione. The purified GST-HDAC1 protein was dialyzed with HDAC storage buffer containing 10 mM Tris, pH7.5, 100 mM NaCl and 3 mM MgCl2. 20% Glycerol was added to purified GST-HDAC1 protein before storage at −80° C.
The assay has been carried out in 96 well format and the BIOMOL fluorescent-based HDAC activity assay has been applied. […] Flur de lys Developer was added and the reaction was incubated for 10 min. Briefly, deacetylation of the substrate sensitizes it to the developer, which then generates a fluorophore. The fluorophore is excited with 360 nm light and the emitted light (460 nm) is detected on a fluorometric plate reader (Tecan Ultra Microplate detection system, Tecan Group Ltd.).
The analytical software, Prism 4.0 (GraphPad Software Inc) has been used to generate IC50 from a series of data.

T1 sequence (Q13547 whole entry): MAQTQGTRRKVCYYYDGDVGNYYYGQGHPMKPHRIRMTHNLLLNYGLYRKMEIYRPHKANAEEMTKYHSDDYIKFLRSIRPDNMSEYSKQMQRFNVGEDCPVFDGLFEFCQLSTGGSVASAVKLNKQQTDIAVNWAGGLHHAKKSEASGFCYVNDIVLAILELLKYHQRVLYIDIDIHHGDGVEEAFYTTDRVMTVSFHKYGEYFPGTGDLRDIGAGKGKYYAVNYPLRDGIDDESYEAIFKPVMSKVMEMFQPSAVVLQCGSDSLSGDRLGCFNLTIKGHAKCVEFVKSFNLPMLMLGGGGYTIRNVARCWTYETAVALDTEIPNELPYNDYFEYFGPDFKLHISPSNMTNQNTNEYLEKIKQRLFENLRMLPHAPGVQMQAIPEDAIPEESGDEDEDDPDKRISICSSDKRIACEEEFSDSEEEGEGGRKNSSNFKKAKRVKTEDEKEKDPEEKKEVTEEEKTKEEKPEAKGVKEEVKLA

| GI50 (Colo205 cells) [nM] | IC50 (HDAC1 enzyme) [nM] | SMILES |
| --- | --- | --- |
| 2220 |  | CCCCc1nc2cc(/C=C/C(=O)NO)ccc2n1CC(C)(C)CN(C)C [Compound 3, 3-[2-Butyl-1-(3-dimethylamino-2,2-dimethyl-propyl)-1H-benzoimidazol-5-yl]-N-hydroxy-acrylamide] |
| 2620 | 120 | CSCCc1nc2cc(/C=C/C(=O)NO)ccc2n1CC(C)(C)CN(C)C [Compound 4, 3-[1-(3-Dimethylamino-2,2-dimethyl-propyl)-2-(2-methylsulfanyl-ethyl)-1H-benzoimidazol-5-yl]-N-hydroxy-acrylamide] |
| 2580 | 170 | CCOCc1nc2cc(/C=C/C(=O)NO)ccc2n1CC(C)(C)CN(C)C [Compound 5, 3-[1-(3-Dimethylamino-2,2-dimethyl-propyl)-2-ethoxymethyl-1H-benzoimidazol-5-yl]-N-hydroxy-acrylamide] |
| 2690 | 180 | CC(C)Cc1nc2cc(/C=C/C(=O)NO)ccc2n1CC(C)(C)CN(C)C [Compound 6, 3-[1-(3-Dimethylamino-2,2-dimethyl-propyl)-2-isobutyl-1H-benzoimidazol-5-yl]-N-hydroxy-acrylamide] |
| 1870 | 210 | C#CCCc1nc2cc(/C=C/C(=O)NO)ccc2n1CC(C)(C)CN(C)C [Compound 9, 3-[2-But-3-ynyl-1-(3-dimethylamino-2,2-dimethyl-propyl)-1H-benzoimidazol-5-yl]-N-hydroxy-acrylamide] |
| 1770 | 140 | C=CCCc1nc2cc(/C=C/C(=O)NO)ccc2n1CC(C)(C)CN(C)C [Compound 10, 3-[2-But-3-enyl-1-(3-dimethylamino-2,2-dimethyl-propyl)-1H-benzoimidazol-5-yl]-N-hydroxy-acrylamide] |
| 5500 | 420 | CN(C)CC(C)(C)Cn1c(CCC(F)(F)F)nc2cc(/C=C/C(=O)NO)ccc21 [Compound 13, 3-[1-(3-Dimethylamino-2,2-dimethyl-propyl)-2-(3,3,3-trifluoro-propyl)-1H-benzoimidazol-5-yl]-N-hydroxy-acrylamide] |
| 1500 | 85 | CCOCc1nc2cc(/C=C/C(=O)NO)ccc2n1CCN(CC)CC [Compound 15, 3-[1-(2-Diethylamino-ethyl)-2-ethoxymethyl-1H-benzoimidazol-5-yl]-N-hydroxy-acrylamide] |
| 1190 | 130 | CCN(CC)CCn1c(CC(C)(C)C)nc2cc(/C=C/C(=O)NO)ccc21 [Compound 17, 3-[1-(2-Diethylamino-ethyl)-2-(2,2-dimethyl-propyl)-1H-benzoimidazol-5-yl]-N-hydroxy-acrylamide] |
| 2660 | 260 | CC(C)N(CCn1c(CC(C)(C)C)nc2cc(/C=C/C(=O)NO)ccc21)C(C)C [Compound 20, 3-[1-(2-Diisopropylamino-ethyl)-2-(2,2-dimethyl-propyl)-1H-benzoimidazol-5-yl]-N-hydroxy-acrylamide] |
| 2510 | 380 | CC(C)Cc1nc2cc(/C=C/C(=O)NO)ccc2n1CCN(C(C)C)C(C)C [Compound 21, 3-[1-(2-Diisopropylamino-ethyl)-2-isobutyl-1H-benzoimidazol-5-yl]-N-hydroxy-acrylamide] |
| 2990 | 510 | CN(C)CC(C)(C)Cn1c(C2CCCCC2)nc2cc(/C=C/C(=O)NO)ccc21 [Compound 24, 3-[2-Cyclohexyl-1-(3-dimethylamino-2,2-dimethyl-propyl)-1H-benzoimidazol-5-yl]-N-hydroxy-acrylamide] |
| 2380 | 230 | CN(C)CC(C)(C)Cn1c(C2CC3C=CC2C3)nc2cc(/C=C/C(=O)NO)ccc21 (centres unmarked) [Compound 25, 3-[2-Bicyclo[2.2.1]hept-5-en-2-yl-1-(3-dimethylamino-2,2-dimethyl-propyl)-1H-benzoimidazol-5-yl]-N-hydroxy-acrylamide] |
| 370 | 40 | CC/C=C\CCc1nc2cc(/C=C/C(=O)NO)ccc2n1CCN(CC)CC [Compound 26, 3-[1-(2-Diethylamino-ethyl)-2-hex-3-enyl-1H-benzoimidazol-5-yl]-N-hydroxy-acrylamide] |
| 1420 | 230 | CC/C=C\CCc1nc2cc(/C=C/C(=O)NO)ccc2n1CCN(C(C)C)C(C)C [Compound 27, 3-[1-(2-Diisopropylamino-ethyl)-2-hex-3-enyl-1H-benzoimidazol-5-yl]-N-hydroxy-acrylamide] |
| 180 | 21 | CC/C=C\CCc1nc2cc(/C=C/C(=O)NO)ccc2n1CCNC(C)C [Compound 28, 3-[2-Hex-3-enyl-1-(2-isopropylamino-ethyl)-1H-benzoimidazol-5-yl]-N-hydroxy-acrylamide] |
| 1920 | 130 | CC/C=C\CCc1nc2cc(/C=C/C(=O)NO)ccc2n1CCCNC(C)C [Compound 29, 3-[2-Hex-3-enyl-1-(3-isopropylamino-propyl)-1H-benzoimidazol-5-yl]-N-hydroxy-acrylamide] |
| 420 |  | CCCCCCc1nc2cc(/C=C/C(=O)NO)ccc2n1CCN(CC)CC [Compound 31, 3-[1-(2-Diethylamino-ethyl)-2-hexyl-1H-benzoimidazol-5-yl]-N-hydroxy-acrylamide] |
| 740 | 60 | CC(Cc1nc2cc(/C=C/C(=O)NO)ccc2n1CCCNC(C)C)CC(C)(C)C (centres unmarked) [Compound 32, N-Hydroxy-3-[1-(3-isopropylamino-propyl)-2-(2,4,4-trimethyl-pentyl)-1H-benzoimidazol-5-yl]-acrylamide] |
| 2110 | 230 | CC(C)NCCCn1c(CC(C)(C)C)nc2cc(/C=C/C(=O)NO)ccc21 [Compound 33, 3-[2-(2,2-Dimethyl-propyl)-1-(3-isopropylamino-propyl)-1H-benzoimidazol-5-yl]-N-hydroxy-acrylamide] |
| 4400 | 880 | CC(C)N(CCn1c(CCC(F)(F)F)nc2cc(/C=C/C(=O)NO)ccc21)C(C)C [Compound 34, 3-[1-(2-Diisopropylamino-ethyl)-2-(3,3,3-trifluoro-propyl)-1H-benzoimidazol-5-yl]-N-hydroxy-acrylamide] |
| 860 | 96 | CCNCCn1c(CC(C)(C)C)nc2cc(/C=C/C(=O)NO)ccc21 [Compound 36] |
| 1090 | 91 | CCNCCn1c(CC(C)C)nc2cc(/C=C/C(=O)NO)ccc21 [Compound 37, 3-[1-(2-Ethylamino-ethyl)-2-isobutyl-1H-benzoimidazol-5-yl]-N-hydroxy-acrylamide] |
| 1940 | 560 | CC(Cc1nc2cc(/C=C/C(=O)NO)ccc2n1CCN(C(C)C)C(C)C)CC(C)(C)C (centres unmarked) [Compound 38, 3-[1-(2-Diisopropylamino-ethyl)-2-(2,4,4-trimethyl-pentyl)-1H-benzoimidazol-5-yl]-N-hydroxy-acrylamide] |
| 230 | 24 | CC(Cc1nc2cc(/C=C/C(=O)NO)ccc2n1CCNC(C)C)CC(C)(C)C (centres unmarked) [Compound 39, N-Hydroxy-3-[1-(2-isopropylamino-ethyl)-2-(2,4,4-trimethyl-pentyl)-1H-benzoimidazol-5-yl]-acrylamide] |
| 650 |  | CCCCc1nc2cc(/C=C/C(=O)NO)ccc2n1CCN(C)C [Compound 57, 3-[2-Butyl-1-(2-dimethylamino-ethyl)-1H-benzoimidazol-5-yl]-N-hydroxy-acrylamide] |
|  | 320 | O=C(/C=C/c1ccc2c(c1)ncn2C1CCN(CCCc2ccccc2)C1)NO (centres unmarked) [Compound 98, (E)-N-hydroxy-3-(1-(1-(3-phenylpropyl)pyrrolidin-3-yl)-1H-benzo[d]imidazol-5-yl)acrylamide] |
